# Key:
# [1] = tested on: Aod(xtal-wtL2) (RNA, riboswitch) GGGUCGUGACUGGCGAACAGGUGGGCCACCACCGGGGAGCGACCCUUGCCGCCCGCCUGGGCAA; assay: ITC; settings: 135 mM KCl, 15 mM NaCl, 10 mM MgCl2; 10 mM K-HEPES pH 8.0
# [2] = tested on: Aod(xtal) (RNA, riboswitch) GGGUCGUGACUGGCGAACAGGUGGGAAACCACCGGGGAGCGACCCUUGCCGCCCGCCUGGGCAA; assay: ITC; settings: 135 mM KCl, 15 mM NaCl, 10 mM MgCl2; 10 mM K-HEPES pH 8.0
smiles,measurement,setting,value
NC(=O)c1ncn([C@@H]2O[C@H](COP(=O)(O)O)[C@@H](O)[C@H]2O)c1N,KD,[1],470 ± 30 nM
same,KD,[2],1080 ± 60 nM

# Reference: article PMC4557640 (2015)
